The record followed here is patent publication US20250235462A1, “NOVEL CAPSID ASSEMBLY INHIBITORS” (AM SCIENCES INC, priority 2021, published 2025).

One data set relates to intracellular HBV DNA. Description: Real-time PCR for intracellular HBV DNA in HepAD38 cells. It counts as cell-based, hepatitis B virus (HBV). The conditions noted are these: treated for 65 hours, intracellular HBV DNA by real-time PCR. How it is done: HepAD38 cells were cultured in DMEM medium (Welgene) supplemented with 200 unit/mL penicillin, 200 μg/mL streptomycin, and 10% FBS. During maintenance and passage, the cells were cultured together with 0.4 μg/mL tetracycline. Two days before the treatment with compounds for inducing HBV replication was started, the medium was replaced with a tetracycline-free complete growth medium. […]
HepAD38 cells were treated with a compound for 65 hours and then recovered, and intracellular HBV DNA was extracted therefrom according to the protocol in the DNeasy Blood & Tissue Kit (Qiagen). The primers and probes used to quantify HBV DNA were 5′-[…]-3′, 5′-[…]-3′, and 5′-/56-FAM/TGT CCT GGT/ZEN/[…]/3IABKFQ/-3′. The HBV DNA was amplified by real-time PCR assay using LightCycler 480 (Roche) (J. Virol., 2018, 92(16):e00339-18). All of the processes were confirmed in duplicate.

The test system of the next data set is HepAD38 cells. Put plainly: Cell viability assay (EZ-Cytox) in HepAD38 cells. The conditions noted are these: 65 hours of treatment. It counts as cell-based. How it is done: (§1) HepAD38 cells were cultured for 2 days in Dulbecco's Modified Eagle's medium (Welgene, LM001-05) supplemented with 10% FBS without tetracycline. The cells were seeded in 48-well culture plates (1×10^5 cells/well) and treated with each compound at five concentrations (0 μM (0.8% DMSO as a control), 33 μM, 50 μM, 66 μM, and 100 μM). After 65 hours of treatment, viability was measured using EZ-Cytox cell viability assay kit (Daeil Lab Service) according to the manufacturer's instructions. The absorbance was measured at 450 nm using a spectrophotometer (Spark, Tecan). Here, NVR-3-778 (denoted as NVR) was used as a positive control.

Data set [1] addresses Protein (capsid assembly) (Hepatitis B virus genotype D subtype ayw, UniProt P03146). Description: Protein inhibition (capsid assembly inhibition), Table 1. It counts as biochemical. The conditions noted are these: for inhibition at 30 µM: read-out: Protein % inhibition rate (@30 μM).
Data set [2] is described as follows: Cell viability assay (EZ-Cytox) in HepAD38 cells. The conditions noted are these: human, 65 hours of treatment; for CC50 at 65 h: read-out: Cytotoxicity CC50; for viability at 65 h, 100 µM: read-out: Cytotoxicity % Livability (@100 μM). It counts as cell-based. How it is done: as §1
The mark [3] stands for this setting: NVR value of the same run in brackets, read-out: Protein EC50.
Where [4] appears, read: Hepatitis B virus, HePAD38, 65 h.

Read-outs that look alike come from different tables or passages of the source. Some results are limits rather than exact numbers.

Sequence of Protein (capsid assembly) (P03146 whole entry): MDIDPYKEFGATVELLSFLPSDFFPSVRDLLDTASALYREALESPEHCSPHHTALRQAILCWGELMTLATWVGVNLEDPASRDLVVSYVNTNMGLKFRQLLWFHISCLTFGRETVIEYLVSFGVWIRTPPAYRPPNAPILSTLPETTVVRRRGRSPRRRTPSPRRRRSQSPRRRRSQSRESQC

Take `O=C(Nc1ccc(F)c(Cl)c1)N(Cc1nnc2n1CCOC2)c1ccc2c(c1)OCO2` [Example 4, 1-(Benzo[d][1,3]dioxol-5-yl)-3-(3-chloro-4-fluorophenyl)-1-((6,8-dihydro-5H-[1,2,4]triazolo[3,4-c][1,4]oxazin-3-yl)methyl)urea]: the IC50 in the data set on intracellular HBV DNA was determined as 0.25 µM. The CC50 in the data set on HepAD38 cells (read-out: Cytotoxicity CC50) was more than 100 µM. In data set [1], the “Protein % inhibition rate (@30 μM)” value was found to be 84%. Further, the EC50 in data set [1] (setting [3]) is 6.8 µM.

`N#Cc1cccc(NC(=O)N(Cc2nnc3n2CCCCC3)c2ccc3c(c2)OCO3)c1` [Example 8, 1-(Benzo[d][1,3]dioxol-5-yl)-3-(3-cyanophenyl)-1-((6,7,8,9-tetrahydro-5H-[1,2,4]triazolo[4,3-a]azepin-3-yl)methyl)urea]: in the data set on intracellular HBV DNA (setting [4]), the midpoint of inhibition, the IC50, lay at 0.27 µM. Moreover, in data set [2], the cytotoxic concentration (CC50) at 65 h is more than 100 µM and the viability at 65 h, 100 µM is 91.6%. Moreover, the inhibition at 30 µM in data set [1] amounted to 83%. For the same compound, the EC50 in data set [1] (setting [3]) was 1.8 µM.

In turn, `O=C(Nc1ccc(F)c(Cl)c1)N(Cc1nnc2n1CCCCC2)c1ccc(C(F)(F)F)cc1` [Example 13, 3-(3-Chloro-4-fluorophenyl)-1-((6,7,8,9-tetrahydro-5H-[1,2,4]triazolo[4,3-a]azepin-3-yl)methyl)-1-(4-(trifluoromethyl)phenyl)urea] registered an IC50 in the data set on intracellular HBV DNA (setting [4]) of 0.23 µM. Also, in data set [2], the CC50 at 65 h is more than 100 µM and the viability at 65 h, 100 µM worked out at 106%. Further, in data set [1], the inhibition at 30 µM was found to be 89%. Moreover, the EC50 in data set [1] (setting [3]) is 5 µM.

Take `COc1ccc(N(Cc2nnc3n2CCCCC3)C(=O)Nc2ccc(F)c(Cl)c2)cc1` [Example 3, 3-(3-Chloro-4-fluorophenyl)-1-(4-methoxyphenyl)-1-((6,7,8,9-tetrahydro-5H-[1,2,4]triazolo[4,3-a]azepin-3-yl)methyl)urea]: the IC50 with intracellular HBV DNA (setting [4]) stood at 0.19 µM. Further, in data set [2], the CC50 at 65 h was more than 100 µM and the viability at 65 h, 100 µM worked out at 91.9%. In addition, the inhibition at 30 µM in data set [1] is 89%. Moreover, the EC50 in data set [1] (setting [3]) came out at 1.6 µM.

In the data set on intracellular HBV DNA (setting [4]), `O=C(Nc1ccc(F)c(Cl)c1)N(Cc1nnc2n1CCCCC2)c1ccc2c(c1)OCO2` [Example 2, 1-(Benzo[d][1,3]dioxol-5-yl)-3-(3-chloro-4-fluorophenyl)-1-((6,7,8,9-tetrahydro-5H-[1,2,4]triazolo[4,3-a]azepin-3-yl)methyl)urea] had an IC50 of 0.04 µM. Also, in data set [2], the 50% cytotoxic concentration (CC50) at 65 h is more than 100 µM and the viability at 65 h, 100 µM was 100%. For the same compound, in data set [1], the inhibition at 30 µM was determined as 81%.

In the data set with intracellular HBV DNA (setting [4]), `CC(c1nnc2n1CCOCC2)N(C(=O)Nc1ccc(F)c(Cl)c1)c1ccc2c(c1)OCO2` (stereo not drawn) [Example 33, 1-(Benzo[d][1,3]dioxol-5-yl)-3-(3-chloro-4-fluorophenyl)-1-(1-(5,6,8,9-tetrahydro-[1,2,4]triazolo[4,3-d][1,4]oxazepin-3-yl)ethyl)urea] registered a half-inhibitory concentration (IC50) of 0.36 µM. In addition, in data set [2], the cytotoxic concentration (CC50) at 65 h was more than 100 µM and the viability at 65 h, 100 µM worked out at 88.3%. Further, the inhibition at 30 µM in data set [1] stood at 26%. For the same compound, in data set [1] (setting [3]), the EC50 was 4.3 µM.

Regarding `COc1ccc(N(Cc2nnc3n2CCCC3)C(=O)Nc2ccc(F)c(Cl)c2)cc1` [Example 43, 3-(3-Chloro-4-fluorophenyl)-1-(4-methoxyphenyl)-1-((5,6,7,8-tetrahydro-[1,2,4]triazolo[4,3-a]pyridin-3-yl)methyl)urea], half-maximal inhibition with intracellular HBV DNA (setting [4]) (IC50) required 0.79 µM. In data set [2], the CC50 at 65 h is more than 100 µM and the viability at 65 h, 100 µM was determined as 103%. The inhibition at 30 µM in data set [1] was found to be 96.2%. Further, the 50% effective concentration (EC50) in data set [1] (setting [3]) came to 3.3 µM.

In the data set with intracellular HBV DNA (setting [4]), `O=C(Nc1ccc(F)c(Cl)c1)N(Cc1nnc2n1CCCCC2)c1ccon1` [Example 36, 3-(3-Chloro-4-fluorophenyl)-1-(isoxazol-3-yl)-1-((6,7,8,9-tetrahydro-5H-[1,2,4]triazolo[4,3-a]azepin-3-yl)methyl)urea] gave an IC50 of 0.4 µM. For the same compound, in data set [2], the CC50 at 65 h was more than 100 µM and the viability at 65 h, 100 µM came out at 90.4%. Moreover, in data set [1], the inhibition at 30 µM worked out at 77.6%. In data set [1] (setting [3]), the concentration for a half-maximal effect (EC50) is 1.5 µM.

In the data set with intracellular HBV DNA (setting [4]), `COc1ccc(N(C(=O)Nc2ccc(F)c(Cl)c2)C(C)c2nnc3n2CCCCC3)cc1` (stereo not drawn) [Example 23, 3-(3-Chloro-4-fluorophenyl)-1-(4-methoxyphenyl)-1-(1-(6,7,8,9-tetrahydro-5H-[1,2,4]triazolo[4,3-a]azepin-3-yl)ethyl)urea] came in with an IC50 of 0.32 µM. For the same compound, in data set [2], the CC50 at 65 h is more than 100 µM and the viability at 65 h, 100 µM turned out to be 95.1%. The inhibition at 30 µM in data set [1] was 47%. Moreover, in data set [1] (setting [3]), the EC50 was 3.1 µM.

`COc1ccc(N(Cc2nnc3n2CCOCC3)C(=O)Nc2ccc(F)c(Cl)c2)cn1` [Example 40, 3-(3-Chloro-4-fluorophenyl)-1-(6-methoxypyridin-3-yl)-1-((5,6,8,9-tetrahydro-[1,2,4]triazolo[4,3-d][1,4]oxazepin-3-yl)methyl)urea] came in with a half-maximal inhibitory concentration (IC50) in the data set with intracellular HBV DNA (setting [4]) of 0.084 µM. In addition, the “Cytotoxicity % Livability (@100 μM)” value in the data set with HepAD38 cells (@100 μM) is 100.3%. In data set [2], the CC50 at 65 h was more than 100 µM and the viability at 65 h, 100 µM was determined as 88.6%. The inhibition at 30 µM in data set [1] is 82.8%. In data set [1] (setting [3]), the concentration for a half-maximal effect (EC50) amounted to 1.5 µM.

As for `Cc1cccc(NC(=O)N(Cc2nnc3n2CCCCC3)c2ccc3c(c2)OCO3)c1` [Example 1, 1-(Benzo[d][1,3]dioxol-5-yl)-1-((6,7,8,9-tetrahydro-5H-[1,2,4]triazolo[4,3-a]azepin-3-yl)methyl)-3-m-tolylurea], half-maximal inhibition with intracellular HBV DNA (setting [4]) (IC50) was put at 0.02 µM. Besides, in data set [2], the CC50 at 65 h was more than 100 µM and the viability at 65 h, 100 µM is 95%. Moreover, in data set [1], the midpoint of the response, the EC50, lay at 1.3 µM and the inhibition at 30 µM was 72%.

`O=C(Nc1ccc(F)c(Cl)c1)N(Cc1nnc2n1CCOC2)c1ccc2c(c1)OCO2` [Example 42, 1-(Benzo[d][1,3]dioxol-5-yl)-3-(3-chloro-4-fluorophenyl)-1-((6,8-dihydro-5H-[1,2,4]triazolo[3,4-c][1,4]oxazin-3-yl)methyl)urea] came in with an IC50 in the data set with intracellular HBV DNA (setting [4]) of 0.21 µM. Further, in data set [2], the cytotoxic concentration (CC50) at 65 h is more than 100 µM and the viability at 65 h, 100 µM was 83.7%. The “Protein % inhibition rate (@30 μM)” value in data set [1] amounted to 20%. In addition, the EC50 in data set [1] (setting [3]) turned out to be 6.8 µM.

As to `CC(C)Oc1ccc(N(Cc2nnc3n2CCCCC3)C(=O)Nc2ccc(F)c(Cl)c2)cc1` [Example 12, 3-(3-Chloro-4-fluorophenyl)-1-(4-isopropoxyphenyl)-1-((6,7,8,9-tetrahydro-5H-[1,2,4]triazolo[4,3-a]azepin-3-yl)methyl)urea], half-maximal inhibition with intracellular HBV DNA (setting [4]) (IC50) required 0.11 µM. Besides, in data set [2], the CC50 at 65 h was more than 100 µM and the viability at 65 h, 100 µM was determined as 93.2%. Further, in data set [1], the inhibition at 30 µM worked out at 95%. In addition, the EC50 in data set [1] (setting [3]) is 2.5 µM.

`COc1ccc(N(Cc2nnc3n2CCOCC3)C(=O)Nc2ccc(F)c(Cl)c2)cc1` [Example 27, 3-(3-Chloro-4-fluorophenyl)-1-(4-methoxyphenyl)-1-((5,6,8,9-tetrahydro-[1,2,4]triazolo[4,3-d][1,4]oxazepin-3-yl)methyl)urea] had an IC50 in the data set on intracellular HBV DNA (setting [4]) of 0.032 µM. Further, in data set [2], the CC50 at 65 h was more than 100 µM and the viability at 65 h, 100 µM was 91%. The inhibition at 30 µM in data set [1] is 65%. The EC50 in data set [1] (setting [3]) stood at 2.3 µM.
